SMILES strings stand for the structures. Non-standard residues stand in square brackets, D forms with d. Residues, ends and D or L forms follow the SMILES beside them. Met(O) = CS(=O)CC[C@H](N)C(=O)O Some results are limits rather than exact numbers.

Drawing on ChEMBL document CHEMBL3784984, “Cyclolinopeptides, cyclic peptides from flaxseed with osteoclast differentiation inhibitory activity” (Bioorg Med Chem Lett, 2016), this text covers IC50 and Activity for 16 compounds.

One data set has as its system Bone marrow cell. Kind of data set: Inhibition of RANKL-induced osteoclast differentiation in ICR mouse bone marrow cells after 48 hrs by TRAP assay. Type of data set: functional, cell-based.
A short description of data set [1]: Cytotoxicity against ICR mouse bone marrow cells assessed as cell viability after 24 hrs by MTT assay. It counts as cell-based.

For `CC[C@H](C)[C@@H]1NC(=O)[C@H](C(C)C)NC(=O)[C@H](Cc2ccccc2)NC(=O)[C@H](Cc2ccccc2)NC(=O)[C@@H]2CCCN2C(=O)[C@@H]2CCCN2C(=O)[C@H]([C@@H](C)CC)NC(=O)[C@H](CC(C)C)NC(=O)[C@H](CCSC)NC1=O` (cyclo(FFVIMLIPP)), 5.53 µM corresponded to half-maximal inhibition in the data set with Bone marrow cell (IC50). Further, the Activity entry in data set [1] was “Non-toxic”.
The like results for `CC[C@H](C)[C@@H]1NC(=O)[C@H](C(C)C)NC(=O)[C@H](Cc2ccccc2)NC(=O)[C@H](Cc2ccccc2)NC(=O)[C@@H]2CCCN2C(=O)[C@@H]2CCCN2C(=O)[C@H]([C@@H](C)CC)NC(=O)[C@H](CC(C)C)NC(=O)[C@H](CC[S+](C)[O-])NC1=O` (stereo not given in full) (cyclo(FFVI[Met(O)]LIPP)) were, in that order, 14.9 µM and “Non-toxic”.
Turning to `CC[C@H](C)[C@@H]1NC(=O)[C@H](Cc2c[nH]c3ccccc23)NC(=O)[C@H](Cc2ccccc2)NC(=O)[C@H](Cc2ccccc2)NC(=O)[C@@H]2CCCN2C(=O)[C@H](CCSC)NC(=O)[C@H](CC(C)C)NC(=O)[C@H](CCSC)NC1=O` (cyclo(FFWIMLMP)), the 50% inhibitory concentration (IC50) (as a rule, the concentration that inhibits the measured activity by half) in the data set with Bone marrow cell was determined as 0.49 µM. Further, the Activity result in data set [1] is given as “Non-toxic”.
In the data set on Bone marrow cell, `CC[C@H](C)[C@@H]1NC(=O)[C@H](Cc2c[nH]c3ccccc23)NC(=O)[C@H](Cc2ccccc2)NC(=O)[C@H](Cc2ccccc2)NC(=O)[C@@H]2CCCN2C(=O)[C@H](CC[S+](C)[O-])NC(=O)[C@H](CC(C)C)NC(=O)[C@H](CCSC)NC1=O` (stereo not given in full) (cyclo(FFWIML[Met(O)]P)) came in with an IC50 of 4.67 µM. The Activity result in data set [1] is listed as “Non-toxic”.
On to `CC[C@H](C)[C@@H]1NC(=O)[C@H](Cc2c[nH]c3ccccc23)NC(=O)[C@H](Cc2ccccc2)NC(=O)[C@H](Cc2ccccc2)NC(=O)[C@@H]2CCCN2C(=O)[C@H](CC(C)C)NC(=O)[C@H](CC(C)C)NC(=O)[C@H](CC[S+](C)[O-])NC1=O` (stereo not given in full) (cyclo(FFWI[Met(O)]LLP)), for which, in the data set with Bone marrow cell, the IC50 was found to be 3.86 µM. In data set [1], the Activity entry was “Non-toxic”.
Turning to `CC[C@H](C)[C@@H]1NC(=O)[C@H](Cc2c[nH]c3ccccc23)NC(=O)[C@H](Cc2ccccc2)NC(=O)[C@H](Cc2ccccc2)NC(=O)[C@@H]2CCCN2C(=O)[C@H](CCSC)NC(=O)[C@H](CC(C)C)NC(=O)[C@H](CC[S+](C)[O-])NC1=O` (stereo not given in full) (cyclo(FFWI[Met(O)]LMP)), inhibition in the data set on Bone marrow cell was half-maximal at 0.83 µM (IC50). In data set [1], the Activity entry was “Non-toxic”.
On the same counts, the results for `CC[C@H](C)[C@@H]1NC(=O)[C@H](Cc2c[nH]c3ccccc23)NC(=O)[C@H](Cc2ccccc2)NC(=O)[C@H](Cc2ccccc2)NC(=O)[C@@H]2CCCN2C(=O)[C@H](CC[S+](C)[O-])NC(=O)[C@H](CC(C)C)NC(=O)[C@H](CC[S+](C)[O-])NC1=O` (stereo not given in full) (cyclo(FFWI[Met(O)]L[Met(O)]P)) are 4.04 µM and “Non-toxic”.
On to `CSCC[C@@H]1NC(=O)[C@H](C(C)C)NC(=O)[C@H](Cc2c[nH]c3ccccc23)NC(=O)[C@H](Cc2ccccc2)NC(=O)[C@H](Cc2ccccc2)NC(=O)[C@@H]2CCCN2C(=O)[C@H](CCSC)NC(=O)[C@H](CC(C)C)NC1=O` (cyclo(FFWVMLMP)), for which the half-maximal inhibitory concentration (IC50) in the data set on Bone marrow cell amounted to 0.6 µM. The Activity result in data set [1] is reported as “Non-toxic”.
On the same counts, the results for `CSCC[C@@H]1NC(=O)[C@H](C(C)C)NC(=O)[C@H](Cc2c[nH]c3ccccc23)NC(=O)[C@H](Cc2ccccc2)NC(=O)[C@H](Cc2ccccc2)NC(=O)[C@@H]2CCCN2C(=O)[C@H](CC[S+](C)[O-])NC(=O)[C@H](CC(C)C)NC1=O` (stereo not given in full) (cyclo(FFWVML[Met(O)]P)) are 0.47 µM and “Non-toxic”.
The like results for `CSCC[C@@H]1NC(=O)[C@H](CC(C)C)NC(=O)[C@H](CC[S+](C)[O-])NC(=O)[C@H](C(C)C)NC(=O)[C@H](Cc2c[nH]c3ccccc23)NC(=O)[C@H](Cc2ccccc2)NC(=O)[C@H](Cc2ccccc2)NC(=O)[C@@H]2CCCN2C1=O` (stereo not given in full) (cyclo(FFWV[Met(O)]LMP)) were, in that order, 0.59 µM and “Non-toxic”.
The like results for `CC(C)C[C@@H]1NC(=O)[C@H](CC[S+](C)[O-])NC(=O)[C@H](C(C)C)NC(=O)[C@H](Cc2c[nH]c3ccccc23)NC(=O)[C@H](Cc2ccccc2)NC(=O)[C@H](Cc2ccccc2)NC(=O)[C@@H]2CCCN2C(=O)[C@H](CC[S+](C)[O-])NC1=O` (stereo not given in full) (cyclo(FFWV[Met(O)]L[Met(O)]P)) were, in that order, 0.58 µM and “Non-toxic”.
In the data set with Bone marrow cell, `CC[C@H](C)[C@@H]1NC(=O)[C@H](Cc2ccccc2)NC(=O)[C@H](CC(C)C)NC(=O)[C@@H]2CCCN2C(=O)[C@H](Cc2ccccc2)NC(=O)[C@H](C(C)C)NC(=O)[C@H](CC(C)C)NC(=O)[C@H](CCSC)NC1=O` (cyclo(FIMLVFPL)) registered a half-inhibitory concentration (IC50) of 15.3 µM. Moreover, the Activity result in data set [1] was “Non-toxic”.
On the same counts, the results for `CC[C@H](C)[C@@H]1NC(=O)[C@H](Cc2ccccc2)NC(=O)[C@H](CC(C)C)NC(=O)[C@@H]2CCCN2C(=O)[C@H](Cc2ccccc2)NC(=O)[C@H](C(C)C)NC(=O)[C@H](CC(C)C)NC(=O)[C@H](CC[S+](C)[O-])NC1=O` (stereo not given in full) (cyclo(FI[Met(O)]LVFPL)) are greater than 20 µM and “Non-toxic”.
As for `COc1cc(/C=C/C(=O)CC(=O)/C=C/c2ccc(O)c(OC)c2)ccc1O` [CURCUMIN], half-maximal inhibition with Bone marrow cell (IC50) required 7.5 µM.
With `CC[C@H](C)[C@@H]1NC(=O)[C@H](CC(C)C)NC(=O)[C@H](Cc2ccccc2)NC(=O)[C@H](Cc2ccccc2)NC(=O)[C@@H]2CCCN2C(=O)[C@@H]2CCCN2C(=O)[C@H](C(C)C)NC(=O)[C@H](CC(C)C)NC(=O)[C@H]([C@@H](C)CC)NC1=O` [CYCLOLINOPEPTIDE A] (cyclo(FFLIILVPP)), in the data set with Bone marrow cell, the IC50 is 12.2 µM. The Activity result in data set [1] is given as “Non-toxic”.
The compound `CC(C)Oc1ccc2c(=O)c(-c3ccccc3)coc2c1` [IPRIFLAVONE] came in with a half-inhibitory concentration (IC50) with Bone marrow cell of 17.2 µM.
